Source: patent publication US20260115250A1, “METHODS OF TREATING AGE-RELATED MACULAR DEGENERATION” (Character Biosciences, Inc., priority 2022, published 2026)
Ends that are not written are not given here. Peptide text beside a SMILES is read from it.

How the values were obtained:
LDLR [1] = molecular target: T1, LDLR (Homo sapiens, UniProt P01130); assay: KD (µM)
From the text: First copying reader's note: Left of three side-by-side panels of FIG. 23; the KD cells hold value ± error together. Where the first naming reader finds the target: description_of_the_figure: FIG. 23 is a table showing the binding kinetics results of LDLR binding assays (SPR)
Target sequence in this assay (P01130 22-860 limits assumed): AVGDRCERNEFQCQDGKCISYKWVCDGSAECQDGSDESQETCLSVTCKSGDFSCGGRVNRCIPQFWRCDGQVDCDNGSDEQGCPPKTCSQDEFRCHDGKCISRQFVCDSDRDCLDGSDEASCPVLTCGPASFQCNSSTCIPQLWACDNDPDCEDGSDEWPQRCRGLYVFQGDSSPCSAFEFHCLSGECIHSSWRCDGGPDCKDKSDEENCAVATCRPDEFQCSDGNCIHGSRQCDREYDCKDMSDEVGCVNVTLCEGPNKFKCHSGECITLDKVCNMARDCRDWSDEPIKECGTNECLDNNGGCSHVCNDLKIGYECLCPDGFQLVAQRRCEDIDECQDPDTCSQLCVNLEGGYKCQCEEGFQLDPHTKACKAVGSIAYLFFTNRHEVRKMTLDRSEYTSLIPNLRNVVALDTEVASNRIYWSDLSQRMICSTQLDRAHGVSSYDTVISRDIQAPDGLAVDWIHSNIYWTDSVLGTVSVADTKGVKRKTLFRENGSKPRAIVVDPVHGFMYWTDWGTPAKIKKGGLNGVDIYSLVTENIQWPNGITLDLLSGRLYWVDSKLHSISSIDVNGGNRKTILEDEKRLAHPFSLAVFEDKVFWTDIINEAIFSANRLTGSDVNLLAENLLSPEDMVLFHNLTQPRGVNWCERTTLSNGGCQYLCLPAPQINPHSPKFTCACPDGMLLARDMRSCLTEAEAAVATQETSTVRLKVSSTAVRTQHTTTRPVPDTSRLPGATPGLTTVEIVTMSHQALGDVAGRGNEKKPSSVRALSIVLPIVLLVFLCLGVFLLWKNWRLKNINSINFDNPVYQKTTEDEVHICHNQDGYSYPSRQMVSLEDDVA

LDLR [2] = molecular target: T1, LDLR; assay: LDLR binding (SPR), high surfactant preparation
Experimental: The table shown in FIG. 23 illustrates LDLR binding data (SPR), using a high surfactant preparation. Recombinant LDLR was diluted in 10 mM acetate buffer pH 4.5 and amine coupled to a CM5 chip at 1000 RU. Peptides were diluted to 5 μM in running buffer (HBS-P+, 1 mM CaCl2) and serially diluted 1:3 for 5 total concentrations. Peptides were exposed to immobilized LDLR at a rate of […] for 120 seconds. Between cycles, the chip surface was regenerated with 3 injections of 50 mM NaOH/100 mM EDTA. Multi-Cycle Kinetics was performed on a Biacore Insight Evaluation Software and binding kinetics were analyzed with a 1:1 binding model.
Target sequence in this assay (P01130 22-860): as the sequence (P01130 22-860 limits assumed) above

ARPE-19 cells [3] = assay: ARPE-19 cell viability assay (Cell Titer Glo); type: cell-based, human; details: 100 μM peptide, 1.5 hours
Experimental: ARPE-19 cells were seeded in 96-well plates at 25,000 cells/well and allowed to adhere to the plate surface for at least 24 hours. Peptides were diluted in serum-free DMEM: F12 to a final concentration of 100 μM. Cells were washed, then incubated in 100 μM peptide solution for 1.5 hours at 37° C. Plates were brought to room temperature for 30 minutes, then washed with DPBS. Cells were incubated in a 1:1 mixture of DPBS and Cell Titer Glo 2.0 Reagent for 10 minutes at room temperature, then cell luminescence was read on a plate reader. Viability values were background corrected, and 0% viability is determined by luminescence values of cells treated with 1% Triton-X-100. Data are presented as mean+SD over two separate runs.

[4] = key assays (summary statement on homologous variants)
ARPE-19 cells [5] = assay: ARPE-19 cholesterol efflux; type: cell-based, human; details: ARPE-19, 20 μM peptide, 4 hours
Experimental: Fully confluent 96-well plates of ARPE-19 cells were treated for 1 hour in serum-free DMEM containing 10 mM methyl-β-cyclodextrin, 100 μM cholesterol, and 25 μM BODIPY cholesterol. Cells were then washed and incubated overnight in serum-free DMEM containing 1 μM GW3965, 2 μg/mL ACAT inhibitor, and 0.2% BSA (LXR Agonist treated), or serum free DMEM containing 2 μg/mL ACAT inhibitor, and 0.2% BSA (Control). Cells were washed and incubated with 20 μM peptides diluted in serum-free Fluorobrite DMEM for 4 hours at 37° C. Media was transferred to a new 96-well plate and fresh serum-free Fluorobrite DMEM was placed on the cells. Media and cellular fluorescence were read on a Promega GloMax at 475 nm excitation, 500-550 emission. Fluorescence values were background corrected from no treatment conditions and percent efflux was calculated by the following equation: % efflux=(Media Fluorescence values)/(Media+Cell Fluorescence values). Data are presented as mean+SD over two runs per peptide.

[6] = high surfactant preparation (HBS-P+), 1:1 binding model, read-out: binding KD to LDLR

Row | Compound | Kd (LDLR [2]; [6]) | ARPE-19 cell viability (ARPE-19 cells [3]) | activity in key assays of polypeptides homologous to T-087 [4] | cholesterol efflux following LXR agonist treatment (ARPE-19 cells [5]) | also measured
1 | CC(C)C[C@H](NC(=O)[C@H](CCCNC(=N)N)NC(=O)[C@H](CC(=O)O)NC(=O)[C@H](CCC(N)=O)NC(=O)[C@H](CC(C)C)NC(=O)[C@H](CCCCN)NC(=O)[C@H](CC(=O)O)NC(=O)[C@H](C)NC(=O)[C@H](CC(=O)O)NC(=O)[C@H](CCCNC(=N)N)NC(=O)[C@H](CC(C)C)NC(=O)[C@H](CC(C)C)NC(=O)[C@H](CCCNC(=N)N)NC(=O)[C@H](CCCCN)NC(=O)[C@H](CCCNC(=N)N)NC(=O)[C@H](CC(C)C)NC(=O)[C@H](CCCCN)NC(=O)[C@H](CCCNC(=N)N)NC(=O)[C@H](CC(C)C)NC(=O)[C@@H](N)Cc1c[nH]cn1)C(=O)N[C@@H](C)C(=O)N[C@@H](CCC(=O)O)C(=O)N[C@@H](Cc1ccc(O)cc1)C(=O)N[C@@H](CCC(N)=O)C(=O)N[C@@H](C)C(=O)N[C@@H](CCCNC(=N)N)C(=O)N[C@@H](C)C(=O)N[C@@H](CCCCN)C(=O)N[C@@H](CCC(=O)O)C(=O)N[C@@H](C)C(=O)N[C@@H](Cc1ccccc1)C(=O)N[C@@H](CC(=O)O)C(=O)N[C@@H](CCCNC(=N)N)C(=O)O [T-050] (H-HLRKLRKRLLRDADKLQDRLAEYQARAKEAFDR-OH; N-terminus and C-terminus assumed) | – | – | – | – | Kd (LDLR [1]): 528.5 ± 0.71 µM
2 | CC(C)C[C@H](NC(=O)[C@H](CCCNC(=N)N)NC(=O)[C@H](CC(=O)O)NC(=O)[C@H](Cc1ccc(O)cc1)NC(=O)[C@H](CC(C)C)NC(=O)[C@H](CCCCN)NC(=O)[C@H](CC(=O)O)NC(=O)CNC(=O)[C@H](CC(=O)O)NC(=O)[C@H](CCCNC(=N)N)NC(=O)[C@H](CC(C)C)NC(=O)[C@H](CC(C)C)NC(=O)[C@H](CCCNC(=N)N)NC(=O)[C@H](CCCCN)NC(=O)[C@H](CCCNC(=N)N)NC(=O)[C@H](CC(C)C)NC(=O)[C@H](CCCCN)NC(=O)[C@H](CCCNC(=N)N)NC(=O)[C@H](CC(C)C)NC(=O)[C@@H](N)Cc1c[nH]cn1)C(=O)N[C@@H](C)C(=O)N[C@@H](CCC(=O)O)C(=O)N[C@@H](Cc1ccc(O)cc1)C(=O)N[C@@H](Cc1ccc(O)cc1)C(=O)N[C@@H](C)C(=O)N[C@@H](CCCNC(=N)N)C(=O)N[C@@H](C)C(=O)N[C@@H](CCCCN)C(=O)N[C@@H](CCC(=O)O)C(=O)N[C@@H](C)C(=O)N[C@@H](Cc1ccccc1)C(=O)N[C@@H](CC(=O)O)C(=O)N[C@@H](CCCNC(=N)N)C(=O)O [T-062] (H-HLRKLRKRLLRDGDKLYDRLAEYYARAKEAFDR-OH) | < 10 µM | substantial change in viability | – | – | –
3 | CSCC[C@H](NC(=O)[C@H](CC(C)C)NC(=O)[C@H](CC(=O)O)NC(=O)[C@H](CCCCN)NC(=O)CNC(=O)[C@H](Cc1ccc(O)cc1)NC(=O)[C@H](CC(=O)O)NC(=O)[C@@H](NC(=O)[C@@H](NC(=O)[C@@H](NC(=O)[C@H](CCC(N)=O)NC(=O)[C@H](Cc1ccccc1)NC(=O)[C@H](Cc1ccc(O)cc1)NC(=O)[C@H](CCC(N)=O)NC(=O)[C@H](CO)NC(=O)[C@@H](NC(=O)[C@H](CC(C)C)NC(=O)[C@H](CO)NC(=O)[C@H](CCCNC(=N)N)NC(=O)[C@H](CC(C)C)NC(=O)[C@H](CC(C)C)NC(=O)[C@H](CCCNC(=N)N)NC(=O)[C@H](CCCCN)NC(=O)[C@H](CCCNC(=N)N)NC(=O)[C@H](CC(C)C)NC(=O)[C@H](CCCCN)NC(=O)[C@H](CCCNC(=N)N)NC(=O)[C@H](CC(C)C)NC(=O)[C@H](Cc1c[nH]cn1)NC(=O)[C@H](CO)NC(=O)[C@H](C)NC(=O)[C@@H](N)CC(C)C)C(C)C)[C@@H](C)O)C(C)C)[C@@H](C)O)C(=O)O [T-065] (H-LASHLRKLRKRLLRSLVSQYFQTVTDYGKDLM-OH) | < 10 µM | substantial change in viability | – | – | –
4 | CC(C)C[C@H](NC(=O)[C@H](C)NC(=O)[C@H](CCCNC(=N)N)NC(=O)[C@H](Cc1ccccc1)NC(=O)[C@H](CCC(=O)O)NC(=O)[C@H](CCCNC(=N)N)NC(=O)[C@@H](N)Cc1c[nH]c2ccccc12)C(=O)N[C@@H](Cc1ccccc1)C(=O)N[C@@H](CCCCN)C(=O)N[C@@H](CCC(=O)O)C(=O)N[C@@H](CC(C)C)C(=O)N[C@@H](C)C(=O)N[C@@H](CC(=O)O)C(=O)N[C@@H](Cc1ccc(O)cc1)C(=O)N[C@@H](Cc1ccccc1)C(=O)N[C@@H](CCCNC(=N)N)C(=O)N[C@@H](CC(=O)O)C(=O)N[C@@H](C)C(=O)O [T-085] (H-WREFRALFKELADYFRDA-OH) | – | substantial change in viability | – | – | –
5 | CC(C)C[C@H](NC(=O)[C@H](CC(=O)O)NC(=O)[C@H](CCCCN)NC(=O)CNC(=O)[C@H](Cc1ccc(O)cc1)NC(=O)[C@H](CC(=O)O)NC(=O)[C@@H](NC(=O)[C@@H](NC(=O)[C@@H](NC(=O)[C@H](CCC(N)=O)NC(=O)[C@H](CCCNC(=N)N)NC(=O)[C@H](Cc1ccc(O)cc1)NC(=O)[C@H](CCC(N)=O)NC(=O)[C@H](CO)NC(=O)[C@@H](NC(=O)[C@H](CC(C)C)NC(=O)[C@H](CO)NC(=O)[C@H](CCCNC(=N)N)NC(=O)[C@H](CC(C)C)NC(=O)[C@H](CC(C)C)NC(=O)[C@H](CCCNC(=N)N)NC(=O)[C@H](CCCCN)NC(=O)[C@H](CCCNC(=N)N)NC(=O)[C@H](CC(C)C)NC(=O)[C@H](CCCCN)NC(=O)[C@H](CCCNC(=N)N)NC(=O)[C@H](CC(C)C)NC(=O)[C@@H](N)Cc1c[nH]cn1)C(C)C)[C@@H](C)O)C(C)C)[C@@H](C)O)C(=O)O [T-110] (H-HLRKLRKRLLRSLVSQYRQTVTDYGKDL-OH) | < 10 µM | substantial change in viability | – | – | –
6 | CC(C)C[C@H](NC(=O)[C@H](CC(=O)O)NC(=O)[C@H](CCC(=O)O)NC(=O)CNC(=O)[C@H](Cc1ccc(O)cc1)NC(=O)[C@H](CC(=O)O)NC(=O)[C@@H](NC(=O)[C@@H](NC(=O)[C@@H](NC(=O)[C@H](CCC(N)=O)NC(=O)[C@H](CCCNC(=N)N)NC(=O)[C@H](Cc1ccc(O)cc1)NC(=O)[C@H](CCC(N)=O)NC(=O)[C@H](CO)NC(=O)[C@@H](NC(=O)[C@H](CC(C)C)NC(=O)[C@H](CO)NC(=O)[C@H](CCCNC(=N)N)NC(=O)[C@H](CC(C)C)NC(=O)[C@H](CC(C)C)NC(=O)[C@H](CCCNC(=N)N)NC(=O)[C@H](CCCCN)NC(=O)[C@@H](NC(=O)[C@H](CC(C)C)NC(=O)[C@H](CCCCN)NC(=O)[C@H](CCCNC(=N)N)NC(=O)[C@H](CC(C)C)NC(=O)[C@@H](N)Cc1c[nH]cn1)C(C)C)C(C)C)[C@@H](C)O)C(C)C)[C@@H](C)O)C(=O)O [T-111] (H-HLRKLVKRLLRSLVSQYRQTVTDYGEDL-OH) | < 10 µM | substantial change in viability | – | – | –
7 | DHINKVQRKVTHEIERLFLGQSTEELRVRLASHLRKLRKRLLRDADDLQKRLAVYQA [T-115] | – | substantial change in viability | – | – | Kd (LDLR [2]): < 10 µM
8 | T-152: variant of peptide T-087 (AAWERFRALFKELADYFR) | – | – | sustained or improved activity | increased cholesterol efflux | –
9 | T-160: variant of peptide T-087 (DAWERFRPLFKELADYFR) | – | – | sustained or improved activity | increased cholesterol efflux | –
10 | T-161: variant of peptide T-087 (DAWERFRGLFKELADYFR) | – | – | sustained or improved activity | increased cholesterol efflux | –
11 | T-163: variant of peptide T-087 (DAWERFRALAKELADYFR) | – | – | sustained or improved activity | increased cholesterol efflux | –
12 | T-172: variant of peptide T-087 (DAWERFRALFKELADYFA) | – | – | sustained or improved activity | increased cholesterol efflux | –
13 | VRGRLVQYRGEVQAMLGQSTEELRVRLASHLRKLRKRLLRDADDLQKRLAVYQA [T-069] | – | substantial change in viability | – | – | Kd (LDLR [2]): < 10 µM
